“Also recorded” adds a separate entry of the source.
Columns and labels:
[1] = system: human aortic endothelial cells (HAEC); assay: LPS-induced actin cytoskeleton disassembly, phalloidin staining, endothelial cells; type: cell-based; conditions: LPS 10 μg/ml, 10 min
Description: In light of the findings in the previous Examples, and using the materials prepared in above, the effect of the gelsolin binding by LPS was studied to determine the effect on cellular responses in vitro. Cell cultures of human aortic endothelial cells (HAEC) and rat primary astrocytes were used to evaluate the effect of LPS on actin. Both of these cell types have mCD14 (membrane bound C14) and TLR LPS receptors (Faure, et al., J. Biol. Chem. 275:11058-11063 (2000); Bsibsi, et al., J. Neuropathol. Exp. Neurol. 61:1013-1021 (2002); Bowman, et al., Glia 43:281-291 (2003)).
HAECs (primary human aortic endothelial cells) (ATCC, Rockville, Md. or Clonetics, San Diego, Calif.), will grow to confluence through passages 5-9 in endothelial cell growth medium supplemented with 2% fetal bovine serum, 10 μg/liter human recombinant epidermal growth factor, 1 mg/liter hydrocortisone, 50 μg/ml gentamicin, 50 ng/ml amphotericin-B, in a 37° C. humidified atmosphere of 95% air:5% C02.
HAECs and astrocytes cultures were incubated for 10 minutes in medium containing 10 μg/ml LPS alone, or LPS that had been pre-incubated with 0.16 mg/ml of human gelsolin. […] Location of transcription factor nuclear factor-kappaB (NF-κB) was observed using a monoclonal antibody to NF-κB (Molecular Probes), and cell nuclei were detected by counter-staining with 4′, 6-diamidino-2-phenylindole dihydrochloride (DAPI) (Sigma).

[2] = system: NF-κB translocation in rat primary astrocytes; assay: NF-κB translocation to the nucleus in astrocytes; type: cell-based; conditions: astrocytes, 2 hour; LPS 2 μM or TNF-α 10 ng/ml
Description: Rat primary astrocytes were obtained from prenatal rats and maintained for 14 days in culture before use. Embryos (E17-E19) were removed by caesarian section from a Sprague-Dawley rat and the hippocampi were surgically removed. The tissue was digested in trypsin/DNAse at 37° C., centrifuged (1000×5 min) and filtered to derive suspensions from each pup. Cells were grown in an incubator at 37° C. and 5% CO2 in DMEM (Dulbecco's Modified Eagle's Medium; BioWhittaker/Cambrex BioScience, East Rutherford, N.J.), supplemented with Ham's F12 (Sigma-Aldrich, St. Louis, Mo.) and 5% fetal bovine serum (FBS) (Hyclone, Logan, Utah) for 7 days, followed by an additional 7 days in Neurobasal medium (Gibco, Grand Island, N.Y.) also supplemented with 5% FBS, 2 mM l-glutamine, 50 μg/ml streptomycin and 50 U/ml penicillin. In each experiment, the medium was changed to serum-free at 6-12 hours prior to addition of LPS, TNF-α, or gelsolin.
HAECs and astrocytes cultures were incubated for 10 minutes in medium containing 10 μg/ml LPS alone, or LPS that had been pre-incubated with 0.16 mg/ml of human gelsolin. Cultures were fixed with ice-cold methanol and immunostained for F-actin with fluorescein isothiocyanate (FITC)-labeled phalloidin (Molecular Probes, Eugene, Oreg.). In astrocyte cultures, NF-κB translocation was manipulated by a 2 hour incubation in serum-free medium containing one of the following: 10 ng/ml TNF-α, 10 μg/ml LPS alone, or LPS that had been preincubated with 0.16 mg/ml human gelsolin. Location of transcription factor nuclear factor-kappaB (NF-κB) was observed using a monoclonal antibody to NF-κB (Molecular Probes), and cell nuclei were detected by counter-staining with 4′, 6-diamidino-2-phenylindole dihydrochloride (DAPI) (Sigma).

human platelets = assay: Collagen-induced aggregation of gel-filtered platelets; type: cell-based; conditions: collagen 10 μg/ml
Description: To isolate human platelets, blood from healthy volunteers was collected in acid-citrate dextrose. Platelet-rich plasma obtained after centrifugation (15 minutes, 110×g) at room temperature, was supplemented with apyrase (0.5 U/ml) (Sigma-Aldrich) to degrade excess nucleotides. Platelets were sedimented by centrifugation (10 minutes, 1000×g), suspended in buffer A (139 mM NaCl, 2.8 mM KCl, 0.8 mM MgCl2, 0.8 mM KH2PO4, 8.9 mM NaHCO3, 10 mM HEPES, 5.6 mM glucose, 0.3% albumin, pH 7.35) and filtered on a 50 ml column of Sepharose 2B to obtain gel-filtered platelets (GFP).
Platelet aggregation was initiated by adding collagen (10 μg/ml) (Chrono-Log Corp., Havertown, Pa.). Platelet aggregation was monitored using a Chronolog Lumi-Aggregometer (Chrono-Log Corp.). Changes in light transmission were recorded for 10 minutes, using a PowerLab/200 instrument and MacLab Chart program Version 3.2. When required before activation, the platelet suspension was reacted with LPS, or LPS-preincubated with the SEQ ID No:1 peptide (QRLFQVKGRR).

[3] = Neutron scattering of LPS with gelsolin peptide; type: physicochemical; conditions: preliminary neutron scattering, cylindrical structure
Description: The molecular structure of LPS and its complexes with proteins can be measured at nm resolution by X-ray and neutron scattering, as well as by electron and atomic force microscopy.
At present, the calculated diameter (36 nm) is greater than that which has been previously reported for pure LPS micelles, and the difference in size may reflect another structural feature. In additional experiments with more variations in gelsolin/LPS or peptide, LPS ratios will reveal if there are significant changes in LPS particle structure when these peptides bind LPS.

With lipopolysaccharide [LPS] the “effect of LPS alone on actin cytoskeleton” value [1] was “rapidly induced the disassembly of the actin cytoskeleton; also recorded: disassembly of the actin cytoskeleton was readily induced; also recorded: rapidly induced disassembly of the actin cytoskeleton”, the “induction of NF-κB translocation to the nucleus” value [2] was “caused NF-κB translocation to the nucleoplasm; also recorded: resulted in its translocation to the nucleoplasm” and the “effect of LPS alone on collagen-induced platelet aggregation and secretion” value (human platelets) was “strongly inhibited”. It also gave a calculated diameter [3] of 36 nm.

Reference: patent US9408891B2, “Methods of using gelsolin to treat or prevent bacterial sepsis” (priority 2003, dated 2016)
